Measurements reported in patent US10001483B2, “Methods for the treatment of Kaposi's sarcoma or KSHV-induced lymphoma using immunomodulatory compounds, and uses of biomarkers” (Celgene Corporation, priority 2015, dated 2018).

Key:
MHC-1 = assay: Butyrate induced (lytic KSHV activation) MHC-1 down-regulation in BCBL-1 cells, FACS and Western blot; type: cell-based; conditions: pretreatment 24 h before butyrate
Description: In addition, the effect of the immunomodulatory drugs on KSHV down-regulation of MHC-1 during lytic activation was investigated by FACS analysis after pretreating the cells with Immunomodulatory drugs prior to lytic activation with butyrate.
Flow Cytometry Analysis and Antibodies: For flow cytometry analysis of MHC-I expression, cells were plated at 400,000 cells/mL and pretreated with immunomodulatory agents as indicated. After twenty-four hours, cells were treated with butyrate at indicated amounts to induce lytic activation and down-regulation of MHC-I. After another twenty-four hours, cells were analyzed on FACS and extracts were prepared as indicated. For flow cytometry analysis, the cells, 1×105 per sample, were incubated with indicated conjugated monoclonal antibodies for 30 min at 4° C. After washing twice with PBS, cells were resuspended in PBS and flow cytometry analysis was performed with a FACSCalibur. FITC-conjugated antibodies to anti-HLA MHC Class I (Sigma-Aldrich) and PE-conjugated antibodies to anti-DR MHC Class II (BioLegend) were used for flow cytometry.

[1] = Pharmacokinetic studies: plasma concentrations of pomalidomide in KS patients (HPLC with fluorescence detection); type: in vivo, human
Description: A non-compartmental analysis was used to calculate plasma pharmacokinetic parameters (Pharsight Corp, Mountain View, Calif.). The maximum plasma concentration (CMAX) and time to CMAX (TMAX) were recorded as observed values; the area under the plasma concentration vs time curve (AUC) was calculated using the log-linear trapezoidal method. For day 1 of cycle 1 (C1D1), the AUC extrapolated to infinity (AUCINF) was used, unless the percent extrapolated exceeded 25%, in which case AUCLAST (to the last quantifiable time point) was used. The steady-state exposure on C1D15 was calculated using AUCLAST.
Pharmacokinetic Studies were performed pre-dose on cycle 1 day 1 and day 15. Across all analyzed doses: TMAX=2.71±1.73 hrs, T1/2=7.10±2.48 hours, and CMAX=61.21±29.30 ng/mL. […] Comparing HIV infected with non-infected subjects, for CMAX at C1D1 p=0.45, at C1D15 p=0.80 at C1D15 and comparing changes from baseline p=0.91; for AUCLAST at C1D1, p=0.63; at C1D15 p=0.97 and comparing changes from baseline p=0.91.

KSHV K3 and K5 = assay: K3 and K5 protein expression in BCBL-1 cells after lytic activation, Western blot; type: cell-based; conditions: following lytic activation
Description: Western Blotting: At the end of an incubation period, cells were lysed and nuclear/cytoplasmic extracts were prepared using the NE-PER nuclear extraction kit (Pierce). Samples were subjected to SDS-PAGE (4 to 12% NuPAGE Tris-Bis) (Invitrogen) and transferred to nitrocellulose. The membrane was blocked with 5% w/v nonfat dry milk in 1×TBST (10 mM Tris-Hcl, […], 150 mM NaCl, and 0.05% Tween 20) overnight at 4° C. Blots were incubated with indicated antibodies such as anti-IRF-7 (Santa Cruz), anti-IRF-4 (Cell Signaling), anti-p21 (Cell Signaling), anti-NF-κB p65 (Cell Signaling), anti-NF-κB phospho-p65 (Cell Signaling), IFN-γRa (Cell Signaling), or anti-CRBN (Sigma-Aldrich), and subjected to the appropriate secondary antibody conjugated to alkaline phosphatase (Promega). Bands were visualized with Western Blue stabilized substrate (Promega). Membranes were scanned and images were processed as described.
Flow Cytometry Analysis and Antibodies: For flow cytometry analysis of MHC-I expression, cells were plated at 400,000 cells/mL and pretreated with immunomodulatory agents as indicated. After twenty-four hours, cells were treated with butyrate at indicated amounts to induce lytic activation and down-regulation of MHC-I. After another twenty-four hours, cells were analyzed on FACS and extracts were prepared as indicated. […]

[2] = human, po, plasma, across all analyzed doses, cycle 1 day 1 and day 15, 5 mg orally

Nc1cccc2c1C(=O)N(C1CCC(=O)NC1=O)C2=O (stereo not shown) [pomalidomide, 4-amino-2-(2,6-dioxopiperidin-3-yl)isoindoline-1,3-dione]
down-regulation of MHC Class I expression upon lytic KSHV activation (MHC-1; FIGS. 7A-7C and FIG. 8): inhibits MHC-1 down-regulation
down-regulation of MHC Class I expression upon lytic KSHV activation (MHC-1; FIGS. 7A-7C and FIG. 8, listed as Pomalidomide): substantially more effective at preventing the down-regulation
accumulation ([1]; from day 1 to day 15): No evidence of accumulation
differences in pharmacokinetics by ART regimen ([1]; human, in vivo): No significant differences
differences in pharmacokinetics by HIV status ([1]; human, in vivo): No significant differences
Tmax [1, 2]: 2.71 ± 1.73 h
half-life [1, 2]: 7.1 ± 2.48 h
Cmax ([1]; plasma, across all analyzed doses, cycle 1 day 1 and day 15, 5 mg orally): 61.21 ± 29.30 ng/mL
protein expression level of KSHV K3 or K5 (KSHV K3 and K5; FIG. 8): appears not to prevent K3 and K5 expression
protein expression level of KSHV K3 or K5 (KSHV K3 and K5; FIG. 8, listed as Pomalidomide): did not significantly change the protein expression level
